Laboratory results from patent US20190134033A1, “PHARMACEUTICAL COMBINATIONS” (Novartis AG, priority 2013, published 2019).

Columns and labels:
[1] = tested on: TRP-590A-SHSY5Y-XEF (ALK F1174L mutated); experiment: SY5Y Xenograft, LDK378 and CGM097 alone and combined (FIG. 6); assay type: in vivo
ALK = ALK phosphorylation in ALK mutant and p53 WT neuroblastoma cell lines; assay type: cell-based
Protocol: (§1) Compound stocks of LDK378 (compound B) and NVP-CGM097 (compound A) are prepared in DMSO at a final concentration of 10 mM. Working stocks of compound A and compound B are serially diluted in the appropriate cell culture medium to achieve final assay concentrations ranging from 10 μM to 0.039 μM.
(§2) ALK+NB neuroblastoma cell line is disclosed in G. Barone, et al in the journal Clin. Cancer Res., Vol 19, pp 5814-5821 (2013).

[2] = tested on: NB-1 neuroblastoma xenograft; experiment: NB-1 neuroblastoma in vivo xenograft model, LDK378 and Compound C alone and combined (Example 2, FIG. 8); settings: NB1 model, PO QD, LDK378 50 mg/kg, Compound C 20 mg/kg
Protocol: The combination of LDK378 (Compound B) and HDM-2/p53 inhibitor (S)-5-(5-Chloro-1-methyl-2-oxo-1,2-dihydro-pyridin-3-yl)-6-(4-chloro-phenyl)-2-(2,4- dimethoxy-pyrimidin-5-yl)-1-isopropyl-5,6-dihydro-1H-pyrrolo[3,4-d]imidazol-4-one (Compound C) were tested in NB-1 neuroblastoma in vivo xenograft model. A total of 5 animals per group were enrolled in efficacy study. For single-agent and combination studies, animals were dosed via oral gavage for both LDK378 and Compound C. LDK378 was formulated in 0.5% CMC/0.5% Tween 80, and Compound C was formulated in Methylcellulose 0.5% w/V in pH 6.8 50 mM phosphate buffer at 20 mg/kg as free base. For NB1 model, the tumors reached approximately 200 mm^3 at day 16 post implantation. On Day 16, tumor-bearing mice were randomized into treatment groups.
Animals were weighed at dosing day(s) and dose was body weight adjusted, dosing volume was 10 ml/kg. Tumor dimensions and body weights were collected at the time of randomization and twice weekly thereafter for the study duration. The following data was provided after each day of data collection: incidence of mortality, individual and group average body weights, and individual and group average tumor volume.

NB-1 Xenograft = experiment: NB-1 Xenograft, LDK378 single agent and combinations with CGM097 and LEE011 (FIG. 5, FIG. 7); assay type: in vivo
Excerpt: FIG. 5 summarizes data for treatments with LDK378 (ALK inhibitor) and CGM097 (HDM-2/P53 Inhibitor) as single agents and in combination in a NB-1 Xenograft.
FIG. 7 summarizes data for LDK378 Single Agent and Combination Treatments with NVP-CGM097 in a NB-1 Xenograft. […] After treatment termination, tumors resumed growth.

p53 = experiment: Induction of p53 and its downstream target genes in ALK mutant and p53 WT neuroblastoma cell lines; assay type: cell-based
Protocol: as §1, §2

Compound | tumor growth under continuous treatment [1] | ALK phosphorylation (ALK) | T/C % on day 25 [2] [%] | tumor growth under continuous treatment (NB-1 Xenograft) | induction of p53 and its downstream target genes (p53) | T/C % on day 25 ([2]; listed as COMPOUND C) [%]
Cc1cc(Nc2ncc(Cl)c(Nc3ccccc3S(=O)(=O)C(C)C)n2)c(OC(C)C)cc1C1CCNCC1 [LDK378, 5-chloro-N2-(2-isopropoxy-5-methyl-4-(piperidin-4-yl)phenyl)-N4-[2-(propane-2-sulfonyl)-phenyl]-pyrimidine-2,4-diamine] | continued to grow | inhibited ALK phosphorylation | 27.6 | resumed growth before day 41 | – | –
COc1cc2c(cc1OC(C)C)[C@H](c1ccc(Cl)cc1)N(c1ccc(N(C)C[C@H]3CC[C@H](N4CCN(C)C(=O)C4)CC3)cc1)C(=O)C2 [CGM097, (S)-1-(4-Chloro-phenyl)-7-isopropoxy-6-methoxy-2-(4-{methyl-[4-(4-methyl-3-oxo-piperazin-1-yl)-trans-cyclohexylmethyl]-amino}-phenyl)-1,4-dihydro-2H-isoquinolin-3-one] | continued to grow | – | – | – | caused induction of p53 and its downstream target genes | –
COc1ncc(-c2nc3c(n2C(C)C)[C@H](c2ccc(Cl)cc2)N(c2cc(Cl)cn(C)c2=O)C3=O)c(OC)n1 [Compound C, (S)-5-(5-Chloro-1-methyl-2-oxo-1,2-dihydro-pyridin-3-yl)-6-(4-chloro-phenyl)-2-(2,4-dimethoxy-pyrimidin-5-yl)-1-isopropyl-5,6-dihydro-1H-pyrrolo[3,4-d]imidazol-4-one] | – | – | 50.8 | – | – | 50.80
